According to US20100197616A1, “Proliferation inhibitor of helicobacter pylori including alpha-n-acetyl-glucosaminyl bond-containing monosaccharide derivatives” (THE NOGUCHI INSTITUTE, priority 2007, published 2010):

Tests used:
H. pylori (ATCC 43504) = experiment: H. pylori-proliferation inhibitory effect (OD 600 nm versus negative control); assay type: cell-based, Helicobacter pylori
Experimental: The effect of GlcNAc alpha-O-Et on H. pylori was confirmed according to the following procedures. Bacterial cells of H. pylori (ATCC 43504) stored in a brucella broth culture medium frozen at −80° C. were cultured in the same culture medium (3 mL) supplemented with 10% equine serum at 35° C. in the presence of 15% CO2 for 40 hours according to the shaking culture technique, the movement of bacterial cells was observed under a microscope and non-coccoid type bacterial cells of H. pylori were recovered. The culture medium was inspected for the OD values at 600 nm, followed by the dilution thereof with Muller-Hinton culture medium supplemented with 5.5% equine serum such that the number of bacterial cells present therein was equal to 4×10^7, and 3 mL thereof in total was cultured at 35° C. in the presence of 15% CO2 for 24 hours according to the shaking culture technique, followed by the confirmation by a microscope to thus give an H. pylori-containing culture medium (bacterial cell density: 2×10^7/mL) used in the test for the confirmation of the effect of the foregoing compound. On the other hand, there were prepared Muller-Hinton culture mediums (free of any bacterial cell of H. pylori) each containing 902.6 μM to 14.4 mM of the foregoing GlcNAc alpha-O-Et and supplemented with 5% equine serum, each of the resulting culture mediums was added to the foregoing H. pylori-containing culture medium in a mixing ratio of 1:1 (by volume) (total volume: 100 μL each; on a 96-well plate), followed by the mixing thereof and the subsequent cultivation at 35° C. in the presence of 15% CO2 for 96 hours. After the cultivation thereof over a predetermined period of time, the bacterial cell density thus proliferated was determined by the determination of the OD values at 600 nm, followed by the comparison of the result observed for the sample to which the candidate compound was added with that observed for the negative control free of any candidate compound (the control depicted in FIG. 1) to thus evaluate the proliferation inhibitory effect of the compound. In this respect, 1 U herein means 2.9 μmol/mL. The effect of GlcNAc alpha-cholestanol on H. pylori was confirmed according to the following procedures. Bacterial cells of H. pylori (ATCC 43504) stored in a brucella broth culture medium frozen at −80° C. were cultured in the same culture medium (3 mL) supplemented with 10% equine serum at 35° C. in the presence of 15% CO2 for 40 hours according to the shaking culture technique, the movement or behavior of bacterial cells was observed under a microscope and non-coccoid type bacterial cells of H. pylori were recovered. […]

[1] = Decomposition in culture mediums and the stomach; details: within the culture mediums and the stomach

Row | decomposition (stability) [1] | SMILES | inhibition at 180 µM (H. pylori (ATCC 43504); Helicobacter pylori, ATCC43504, at least 62.5 mU/mL (180 μM, nominal, insoluble fraction filtered off), within 1.5 to 2 days, FIG. 2) | proliferation ability of H. pylori (H. pylori (ATCC 43504); culture medium containing not less than 1.8 mM) | inhibition of the proliferation of H. pylori (H. pylori (ATCC 43504); culture medium containing not less than 7.2 mM) | H. pylori proliferation inhibited (H. pylori (ATCC 43504); not less than 625 mU/mL (1.8 mM), FIG. 1, cultivation up to 96 hours)
1 | – | CC(=O)NC1[C@@H](O[C@H]2CC[C@@]3(C)C(CCC4C3CC[C@@]3(C)C4CC[C@@H]3[C@H](C)CCCC(C)C)C2)OC(CO)[C@@H](O)[C@@H]1O (stereo partly drawn) [Compound 2, 3-beta-Cholestanyl-2-Acetamide-2-Deoxy-N-Acetyl-alpha-D-Glucosaminide] | 40 to 50% | – | – | –
2 | never decomposed | CCO[C@H]1OC(CO)[C@@H](O)[C@H](O)C1NC(C)=O (stereo partly drawn) [Compound 1, Ethoxy 2-acetamide-2-deoxy-N-acetyl-alpha-D-glucosaminide] | – | not more than 50% | completely inhibit | not less than 50%
